The assay has as its system Aβ production in HEK cells over-expressing mutated β-APP (SFAD). The assay is described as follows: Aβ production inhibition, sandwich-ELISA in HEK cells, over-expressed mutated β-APP (SE-SFAD). In kind it is cell-based, human. The conditions noted are these: Homo sapiens, HEK293, HEK cells; for IC50: based on the respective plateau of maximum inhibition; for Emax: maximum inhibition plateau, read-out: SE-SFAD max. inhibition %. The protocol:
The effect of test substances on the inhibition of Aβ-amyloid production can be measured in the supernatant of cell cultures of β-APP expressed cells using ELISA tests or other quantitative determination methods for β-APP degradation products. Typically, 8×10^5 cells (e.g. HEK cells, which express recombinant human β-APP variants) are plated out in each well of a culture dish having 24 wells in growth media such as e.g. OPTIMEM (Gibco) and the test compound is then added. After an incubation period of 24 to 48 hours at 37° C. in a 10% CO2 atmosphere the supernatant is removed from the cell cultures and the β-APP degradation products (e.g. Aβ or β-[…]) are determined with the aid of ELISA (or sandwich ELISA) analysis or by means of quantitative immunoprecipitation (after metabolic radiolabelling of the cell proteins). Typically, 300 μl of the cell supernatant are tested according to the state of the art for ELISA tests in culture dishes having 96 wells. In the case of sandwich ELISA for Aβ, the binding antibody can be directed against the first 16 amino acids of Aβ-peptide (e.g. 6E10 Senetek, Maryland Heights, Mo.) and the detection antibody can be directed against amino acids 17-40 or 17-42 of Aβ and carries a detection system such as e.g. peroxidase. A simple ELISA test with an antibody, e.g. 22C11 (Boehringer Mannheim), can be used as the test for […]; the second antibody can be an anti-(mouse) Ig having a detection system, such as e.g. peroxidase. The peroxidase reaction can be carried out e.g. using a TMB substrate (BioRAD) and the measurements can be carried out at 650 nm using an ELISA reading apparatus. […] SE-SFAD signifies the Aβ production inhibition measured using sandwich-ELISA in HEK cells, SFAD signifies over-expressed mutated β-APP, and SE-WT signifies the Aβ production inhibition measured using sandwich-ELISA in HEK cells which over-express Wild type β-APP. The IC50 values are based on the respective plateau of maximum inhibition.
For orientation: ELISA stands for enzyme-linked immunosorbent assay.

The structures appear in SMILES notation.

As a reminder, the IC50 is the concentration needed to halve the response being measured. Regarding `C#CCN(C(=O)c1cc(-c2cccc(OC)c2)c(=O)n2ccc3ccsc3c12)c1ccccc1` [Compound 127, 8-(3-Methoxy-phenyl)-7-oxo-7H-thieno[2,3-a]quinolizine-10-carboxylic acid phenyl-prop-2-ynyl-amide], the half-inhibitory concentration (IC50) was 0.8 µM and the Emax amounted to 100%.

As to `COc1ccccc1-c1cc(C(=O)NCc2ccccc2)c2c3sccc3ccn2c1=O` [Compound 135, 8-(2-Methoxy-phenyl)-7-oxo-7H-thieno[2,3-a]quinolizine-10-carboxylic acid benzyl-amide], half-maximal inhibition (IC50) required 3 µM and the Emax was 100%.

Consider `COCCN(Cc1ccco1)C(=O)c1cc(-c2ccccc2OC)c(=O)n2ccc3ccsc3c12` [Compound 139, 8-(2-Methoxy-phenyl)-7-oxo-7H-thieno[2,3-a]quinolizine-10-carboxylic acid (furan-2-yl-methyl)-(2-methoxy-ethyl)-amide], for which the 50% inhibitory concentration (IC50) worked out at 3.3 µM and the Emax turned out to be 100%.

As for `COCCN(Cc1cccs1)C(=O)c1cc(-c2ccccc2OC)c(=O)n2ccc3ccsc3c12` [Compound 140, 8-(2-Methoxy-phenyl)-7-oxo-7H-thieno[2,3-a]quinolizine-10-carboxylic acid (2-methoxy-ethyl)-thiophen-2-yl-methyl-amide], half-maximal inhibition (IC50) was put at 2.5 µM and the Emax fell in the range of 30 to 100%.

With `COc1ccc(NC(=O)c2cc(-c3ccccc3OC)c(=O)n3ccc4ccsc4c23)cc1` [Compound 142, 8-(2-Methoxy-phenyl)-7-oxo-7H-thieno[2,3-a]quinolizine-10-carboxylic acid (4-methoxy-phenyl)-amide], the IC50 came out at 1.5 µM and the Emax was in the range of 20 to 100%.

Turning to `C#CCN(C(=O)c1cc(-c2ccccc2OC)c(=O)n2ccc3ccsc3c12)c1ccccc1` [Compound 143, 8-(2-Methoxy-phenyl)-7-oxo-7H-thieno[2,3-a]quinolizine-10-carboxylic acid phenyl-prop-2-ynyl-amide], inhibition was half-maximal at 5.5 µM (IC50) and the Emax was 40 to 100%.

As to `CCN(CCOC)C(=O)c1cc(-c2ccc(OC)cc2)c(=O)n2ccc3ccsc3c12` [Compound 144, 8-(4-Methoxy-phenyl)-7-oxo-7H-thieno[2,3-a]quinolizine-10-carboxylic acid ethyl-(2-methoxy-ethyl)-amide], the IC50 came to 2 µM and the Emax came to 40%.

Consider `COCCN(CCOC)C(=O)c1cc(-c2ccc(OC)cc2)c(=O)n2ccc3ccsc3c12` [Compound 145, 8-(4-Methoxy-phenyl)-7-oxo-7H-thieno[2,3-a]quinolizine-10-carboxylic acid bis-(2-methoxy-ethyl)-amide], for which the half-maximal inhibitory concentration (IC50) is 5 µM and the Emax turned out to be 100%.

`COCCN(CC1CC1)C(=O)c1cc(-c2ccc(OC)cc2)c(=O)n2ccc3ccsc3c12` [Compound 146, 8-(4-Methoxy-phenyl)-7-oxo-7H-thieno[2,3-a]quinolizine-10-carboxylic acid cyclopropylmethyl-(2-methoxy-ethyl)-amide]: the concentration for half-maximal inhibition (IC50) is 1.5 µM and the Emax is 100%.

As to `COCCN(C(=O)c1cc(-c2ccc(OC)cc2)c(=O)n2ccc3ccsc3c12)c1ccccc1` [Compound 147, 8-(4-Methoxy-phenyl)-7-oxo-7H-thieno[2,3-a]quinolizine-10-carboxylic acid (2-methoxy-ethyl)-phenyl-amide], 1.5 µM corresponded to half-maximal inhibition (IC50) and the Emax was determined as 100%.

For `CCCN(CCOC)C(=O)c1cc(-c2ccc(OC)cc2)c(=O)n2ccc3ccsc3c12` [Compound 148, 8-(4-Methoxy-phenyl)-7-oxo-7H-thieno[2,3-a]quinolizine-10-carboxylic acid (2-methoxy-ethyl)-propyl-amide], the IC50 turned out to be 5 µM and the Emax came to 100%.

Turning to `CCN(CCOC)C(=O)c1cc(-c2ccc(C)cc2)c(=O)n2ccc3ccsc3c12` [Compound 149, 7--Oxo-8-p-tolyl-7H-thieno[2,3-a]quinolizine-10-carboxylic acid ethyl-(2-methoxy-ethyl)-amide], the IC50 came to 2.4 µM and the Emax worked out at 100%.

The record behind these values is US5869500A, “Pyridone compounds useful in treating Alzheimer's disease” (Hoffmann-La Roche Inc., priority 1996, dated 1999).
